Measurements reported in patent publication US8664201B2 (priority 2008, dated 2014).
Where “and” joins values, the source holds several entries; their conditions need not be identical. Identical values can stand only once. Counter-ions that a name gives are not always drawn. Marks after values point to notes of the source that are not given here.

Tests used:
[1] = Acute toxicity, three daily IV bolus injections in mice (IPM lysine salt, IPM parent control); format: in vivo; details: for intravenous LD10 / intravenous LD50: IV daily × 3 days
Method: This example describes the evaluation of the acute toxicity of isophosphoramide mustard lysine salt, following three days of daily intravenous (bolus) injection in mice. This study consisted of two phases.
The second main study phase consisted of eight treatment groups (five mice/sex/group) that received the test article as a single daily dose for three consecutive days at respective dose levels of 50, 75, 100, 200, 300, 400, 500, and 600 mg/kg. An additional group (5 mice/sex) served as a parent compound control and received the isophosphoramide mustard parent compound in the same manner, at a dose level of 150 mg/kg. The vehicle was 0.9% sodium chloride for injection, USP and all doses were at a constant volume of 15 mL/kg.
Observations for mortality, morbidity, and the availability of food and water were conducted twice daily for all animals. Observations for clinical signs were conducted daily during the study (approximately one and four hours postdose on Days 1, 2, and 3, and once daily on non-dosing days). Body weights for all surviving animals were measured and recorded the second day after receipt, prior to randomization, and on Days-1 and 7. Body weights also were measured on all surviving main study phase animals on Day 14. Macroscopic evaluations were performed on each main study animal at necropsy (Day 15).
Eight main study treatment groups received the test article as a single daily dose for three consecutive days via intravenous (bolus) injection at respective dose levels of 50, 75, 100, 200, 300, 400, 500, and 600 mg/kg. An additional group (five mice/sex) served as a parent compound control and received the Isophosphoramide Mustard Parent Compound in the same manner at a dose level of 150 mg/kg. All doses were at a volume of 15 mL/kg and based on the most recent body weight.

[2] = Estimated comparable human intravenous dosages
[3] = system: advanced cancer; assay: Treatment of patients with advanced cancer with IPM.(LYS)2; format: in vivo, human
Method: One patient (cohort) was treated per dose escalation every 21-28 days to allow for toxicity presentation. Doses were escalated by 40% if there were no serious toxic events.

[4] = system: MX-1 Human Breast Tumor; details: mouse, in vivo, ip
[5] = system: Lewis lung murine tumor; details: mouse, in vivo, ip

O=P(O)(NCCCl)NCCCl [IPM lysine salt, isophosphoramide mustard lysine salt]
Cumulative Mortality, female ([1]; 50 mg/kg IV daily × 3): 0/5 | Cumulative Mortality, male ([1]; 50 mg/kg IV daily × 3): 0/5 | Cumulative Mortality, total ([1]; 50 mg/kg IV daily × 3): No mice died | Cumulative Mortality, total ([1]; 50 mg/kg IV daily × 3, listed as IPM Lysine Salt): No animals died and 0/10 | Cumulative Mortality, female ([1]; 75 mg/kg IV daily × 3): 0/5 | Cumulative Mortality, male ([1]; 75 mg/kg IV daily × 3): 0/5 | Cumulative Mortality, total ([1]; 75 mg/kg IV daily × 3): No mice died | Cumulative Mortality, total ([1]; 75 mg/kg IV daily × 3, listed as IPM Lysine Salt): No animals died and 0/10 | Cumulative Mortality, female ([1]; 100 mg/kg IV daily × 3): 0/5 | Cumulative Mortality, male ([1]; 100 mg/kg IV daily × 3): 1/5 | Cumulative Mortality, total ([1]; 100 mg/kg IV daily × 3): 1 of 10 | Cumulative Mortality, total ([1]; 100 mg/kg IV daily × 3, listed as IPM Lysine Salt): 1 of 10 and 1/10 | Cumulative Mortality, female ([1]; 200 mg/kg IV daily × 3): 3/5 | Cumulative Mortality, male ([1]; 200 mg/kg IV daily × 3): 0/5 | Cumulative Mortality, total ([1]; 200 mg/kg IV daily × 3): No mice died | Cumulative Mortality, total ([1]; 200 mg/kg IV daily × 3, listed as IPM Lysine Salt): 3 of 10 and 3/10 | Cumulative Mortality, female ([1]; 300 mg/kg IV daily × 3): 5/5 | Cumulative Mortality, male ([1]; 300 mg/kg IV daily × 3): 4/5 | Cumulative Mortality, total ([1]; 300 mg/kg IV daily × 3): 9 out of 10 | Cumulative Mortality, total ([1]; 300 mg/kg IV daily × 3, listed as IPM Lysine Salt): 9 of 10 and 9/10 | Cumulative Mortality, female ([1]; 400 mg/kg IV daily × 3): 5/5 | Cumulative Mortality, male ([1]; 400 mg/kg IV daily × 3): 5/5 | Cumulative Mortality, total ([1]; 400 mg/kg IV daily × 3): all mice died | Cumulative Mortality, total ([1]; 400 mg/kg IV daily × 3, listed as IPM Lysine Salt): all animals died and 10/10 | Cumulative Mortality, female ([1]; 500 mg/kg IV daily × 3): 5/5 | Cumulative Mortality, male ([1]; 500 mg/kg IV daily × 3): 5/5 | Cumulative Mortality, total ([1]; 500 mg/kg IV daily × 3): all mice died | Cumulative Mortality, total ([1]; 500 mg/kg IV daily × 3, listed as IPM Lysine Salt): all animals died and 10/10 | Cumulative Mortality, female ([1]; 600 mg/kg IV daily × 3): 5/5 | Cumulative Mortality, male ([1]; 600 mg/kg IV daily × 3): 5/5 | Cumulative Mortality, total ([1]; 600 mg/kg IV daily × 3): all mice died | Cumulative Mortality, total ([1]; 600 mg/kg IV daily × 3, listed as IPM Lysine Salt): all animals died and 10/10 | Sub-acute IV LD10 ([1]; Mouse): 133 mg/kg/day | intravenous LD10 ([1]; female mice): 179 mg/kg | intravenous LD50 ([1]; female mice): 197 mg/kg | macroscopic findings at necropsy ([1]; main study, Day 15): No treatment-related macroscopic findings | intravenous LD10 ([1]; male mice): 140 mg/kg | intravenous LD50 ([1]; male mice): 247 mg/kg | intravenous LD10 ([1]; mice, combined sexes): 133 mg/kg | intravenous LD50 ([1]; mice, combined sexes): 220 mg/kg | LD10, intravenous three day dose schedule ([1]; mouse, × 3 days): 133 mg/kg/day | estimated MTD in humans (1/10 the LD10 in mice) [2]: 40 mg/m^2/d | Comparable Human IV Dosage ([2]; estimated from mouse sub-acute IV LD10): 40 mg/m^2/d | serious toxicity in patients ([3]; 30, 42, 59 and 83 mg/m^2 daily IV for 3 days, one patient each): without serious toxicity | disease response ([3]; one patient with rectal cancer, 83 mg/m^2 daily IV for 3 days): stabilization of their disease | MTD Dosage [4]: 93.2 mg/kg/dose | T-C [4]: 10.2* days | superiority to IPM at comparable dosing [4]: 8 fold | MTD Dosage [5]: 93.2 mg/kg/dose | T-C [5]: 8.3* days | increase of the MTD (mg/kg/dose) of the salt over parent drug [5]: 2 fold
